The kinase profiling compilation of Christmann-Franck et al. (2016)

Legend:
Experiment in all cases: KINOMEscan competition binding
Settings in all cases: compound 10.0 µM
AXL (human) = AXL (human) (UniProt P30530)
BRSK1 (human) = BRSK1 (human) (UniProt Q8TDC3)
CAMK2D (human) = CAMK2D (human) (UniProt Q13557)
CASK (human) = CASK (human) (UniProt O14936)
CHUK (human) = CHUK (human) (UniProt O15111)
CLK1 (human) = CLK1 (human) (UniProt P49759)
CSNK1A1 (human) = CSNK1A1 (human) (UniProt P48729)
CSNK2A1 (human) = CSNK2A1 (human) (UniProt P68400)
CSNK2A2 (human) = CSNK2A2 (human) (UniProt P19784)
DDR2 (human) = DDR2 (human) (UniProt Q16832)
DYRK1A (human) = DYRK1A (human) (UniProt Q13627)
EGFR (human) = EGFR (human) (UniProt P00533)
EIF2AK1 (human) = EIF2AK1 (human) (UniProt Q9BQI3)
EPHA8 (human) = EPHA8 (human) (UniProt P29322)
FLT4 (human) = FLT4 (human) (UniProt P35916)
IRAK1 (human) = IRAK1 (human) (UniProt P51617)
LIMK2 (human) = LIMK2 (human) (UniProt P53671)
MAP2K1 (human) = MAP2K1 (human) (UniProt Q02750)
MAP2K2 (human) = MAP2K2 (human) (UniProt P36507)
MAP2K3 (human) = MAP2K3 (human) (UniProt P46734)
MAP3K9 (human) = MAP3K9 (human) (UniProt P80192)
MAPK1 (human) = MAPK1 (human) (UniProt P28482)
MAPK12 (human) = MAPK12 (human) (UniProt P53778)
MARK1 (human) = MARK1 (human) (UniProt Q9P0L2)
[1] = system: MET (human), P08581 [Y1235D]
MST1R (human) = MST1R (human) (UniProt Q04912)
PAK1 (human) = PAK1 (human) (UniProt Q13153)
PIM3 (human) = PIM3 (human) (UniProt Q86V86)
RET (human) = RET (human) (UniProt P07949)
[2] = system: RET (human), P07949 [V804M]
RIOK3 (human) = RIOK3 (human) (UniProt O14730)
ROCK2 (human) = ROCK2 (human) (UniProt O75116)
RPS6KA5 KD2 (human) = RPS6KA5 KD2 (human) (UniProt O75582)
SGK110 (human) = SGK110 (human) (UniProt P0C264)
SRC (human) = SRC (human) (UniProt P12931)
SRPK1 (human) = SRPK1 (human) (UniProt Q96SB4)
TAOK2 (human) = TAOK2 (human) (UniProt Q9UL54)
TNK2 (human) = TNK2 (human) (UniProt Q07912)
[3] = target: TYK2 JH2 pseudokinase (human) (UniProt P29597)
VRK2 (human) = VRK2 (human) (UniProt Q86Y07)
Chain of VRK2 (human) (Q86Y07 whole entry, looked up): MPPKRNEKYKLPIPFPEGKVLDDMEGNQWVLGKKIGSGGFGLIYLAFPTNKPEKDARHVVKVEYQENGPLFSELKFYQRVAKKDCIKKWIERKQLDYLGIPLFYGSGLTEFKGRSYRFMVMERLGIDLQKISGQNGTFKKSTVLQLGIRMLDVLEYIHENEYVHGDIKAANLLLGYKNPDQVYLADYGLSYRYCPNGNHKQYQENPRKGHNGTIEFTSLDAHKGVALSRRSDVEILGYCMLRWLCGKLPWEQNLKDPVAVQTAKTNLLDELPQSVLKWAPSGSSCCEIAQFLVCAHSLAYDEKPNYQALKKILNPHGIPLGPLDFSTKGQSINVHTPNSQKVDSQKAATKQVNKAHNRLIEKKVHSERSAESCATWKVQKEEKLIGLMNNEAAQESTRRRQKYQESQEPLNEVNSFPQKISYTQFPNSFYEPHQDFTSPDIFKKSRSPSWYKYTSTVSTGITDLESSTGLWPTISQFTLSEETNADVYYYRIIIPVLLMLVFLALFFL

Chain of ROCK2 (human) (O75116 whole entry, looked up): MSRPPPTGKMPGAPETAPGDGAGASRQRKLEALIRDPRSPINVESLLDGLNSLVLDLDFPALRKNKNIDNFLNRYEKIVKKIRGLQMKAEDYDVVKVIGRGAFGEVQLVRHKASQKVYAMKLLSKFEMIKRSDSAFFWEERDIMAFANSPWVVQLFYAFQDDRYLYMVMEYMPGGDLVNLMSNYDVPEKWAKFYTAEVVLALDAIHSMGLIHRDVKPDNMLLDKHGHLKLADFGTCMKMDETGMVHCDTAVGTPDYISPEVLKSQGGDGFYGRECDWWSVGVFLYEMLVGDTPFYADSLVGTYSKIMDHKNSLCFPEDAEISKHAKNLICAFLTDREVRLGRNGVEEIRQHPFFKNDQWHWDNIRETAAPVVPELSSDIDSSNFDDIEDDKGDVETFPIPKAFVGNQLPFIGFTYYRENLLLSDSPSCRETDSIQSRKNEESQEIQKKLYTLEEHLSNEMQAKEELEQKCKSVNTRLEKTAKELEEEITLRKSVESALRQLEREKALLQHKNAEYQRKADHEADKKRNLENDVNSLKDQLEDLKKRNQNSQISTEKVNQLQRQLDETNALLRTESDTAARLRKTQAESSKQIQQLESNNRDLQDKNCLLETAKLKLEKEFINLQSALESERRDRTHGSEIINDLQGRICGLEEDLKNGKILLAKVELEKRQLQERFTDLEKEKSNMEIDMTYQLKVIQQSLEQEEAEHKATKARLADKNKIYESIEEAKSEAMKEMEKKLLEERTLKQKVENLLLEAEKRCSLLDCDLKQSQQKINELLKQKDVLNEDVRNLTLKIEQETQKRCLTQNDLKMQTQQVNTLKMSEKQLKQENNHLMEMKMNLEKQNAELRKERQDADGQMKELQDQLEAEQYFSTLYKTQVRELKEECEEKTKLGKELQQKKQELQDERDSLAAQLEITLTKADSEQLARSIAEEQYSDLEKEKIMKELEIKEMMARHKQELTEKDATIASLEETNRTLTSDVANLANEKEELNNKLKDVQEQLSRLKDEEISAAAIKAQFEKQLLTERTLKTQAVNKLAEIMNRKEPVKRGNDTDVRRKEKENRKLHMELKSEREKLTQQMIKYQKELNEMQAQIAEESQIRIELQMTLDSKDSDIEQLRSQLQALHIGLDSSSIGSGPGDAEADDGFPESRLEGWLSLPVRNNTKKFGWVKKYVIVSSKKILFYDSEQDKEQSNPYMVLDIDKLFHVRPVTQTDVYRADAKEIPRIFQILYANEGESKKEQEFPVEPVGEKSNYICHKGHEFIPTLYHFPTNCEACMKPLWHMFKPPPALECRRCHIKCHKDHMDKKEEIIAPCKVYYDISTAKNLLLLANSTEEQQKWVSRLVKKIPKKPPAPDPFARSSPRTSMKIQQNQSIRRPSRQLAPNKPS
Chain of MST1R (human) (Q04912 whole entry, looked up): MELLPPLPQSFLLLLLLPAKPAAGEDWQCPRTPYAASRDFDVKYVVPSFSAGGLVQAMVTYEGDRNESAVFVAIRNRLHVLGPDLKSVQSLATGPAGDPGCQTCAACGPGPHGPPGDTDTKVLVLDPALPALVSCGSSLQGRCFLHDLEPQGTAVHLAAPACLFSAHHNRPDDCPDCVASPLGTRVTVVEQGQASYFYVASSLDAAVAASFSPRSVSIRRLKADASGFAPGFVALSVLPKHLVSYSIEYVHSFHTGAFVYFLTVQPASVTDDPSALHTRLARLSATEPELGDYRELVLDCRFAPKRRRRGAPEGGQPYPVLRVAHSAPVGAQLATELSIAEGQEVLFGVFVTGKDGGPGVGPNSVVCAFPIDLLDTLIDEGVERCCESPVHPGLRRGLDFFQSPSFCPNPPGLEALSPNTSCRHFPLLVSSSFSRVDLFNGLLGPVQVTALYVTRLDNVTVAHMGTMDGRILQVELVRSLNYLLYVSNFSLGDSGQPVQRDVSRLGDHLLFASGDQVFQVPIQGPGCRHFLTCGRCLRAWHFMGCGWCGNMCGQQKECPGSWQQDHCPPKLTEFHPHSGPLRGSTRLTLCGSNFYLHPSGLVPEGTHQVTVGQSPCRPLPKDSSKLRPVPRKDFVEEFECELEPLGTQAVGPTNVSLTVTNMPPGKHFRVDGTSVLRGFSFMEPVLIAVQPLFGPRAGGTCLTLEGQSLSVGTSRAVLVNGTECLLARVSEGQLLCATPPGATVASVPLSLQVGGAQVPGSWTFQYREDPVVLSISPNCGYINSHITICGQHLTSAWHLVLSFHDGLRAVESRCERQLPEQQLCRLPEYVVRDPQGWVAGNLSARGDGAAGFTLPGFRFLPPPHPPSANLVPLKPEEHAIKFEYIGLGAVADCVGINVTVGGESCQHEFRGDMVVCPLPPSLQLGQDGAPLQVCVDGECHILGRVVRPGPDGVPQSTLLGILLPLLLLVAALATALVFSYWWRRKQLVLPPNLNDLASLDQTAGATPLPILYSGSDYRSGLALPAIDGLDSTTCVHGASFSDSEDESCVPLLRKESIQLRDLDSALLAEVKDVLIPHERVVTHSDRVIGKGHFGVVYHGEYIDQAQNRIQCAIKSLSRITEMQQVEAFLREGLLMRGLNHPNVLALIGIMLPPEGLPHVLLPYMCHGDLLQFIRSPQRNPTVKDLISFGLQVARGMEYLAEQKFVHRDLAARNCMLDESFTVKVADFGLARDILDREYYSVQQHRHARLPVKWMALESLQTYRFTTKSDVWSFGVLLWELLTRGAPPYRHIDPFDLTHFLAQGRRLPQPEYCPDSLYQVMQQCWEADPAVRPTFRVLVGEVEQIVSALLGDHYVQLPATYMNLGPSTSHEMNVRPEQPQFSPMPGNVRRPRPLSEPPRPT
Chain of RET (human), P07949 [V804M] (P07949 whole entry V804M, looked up): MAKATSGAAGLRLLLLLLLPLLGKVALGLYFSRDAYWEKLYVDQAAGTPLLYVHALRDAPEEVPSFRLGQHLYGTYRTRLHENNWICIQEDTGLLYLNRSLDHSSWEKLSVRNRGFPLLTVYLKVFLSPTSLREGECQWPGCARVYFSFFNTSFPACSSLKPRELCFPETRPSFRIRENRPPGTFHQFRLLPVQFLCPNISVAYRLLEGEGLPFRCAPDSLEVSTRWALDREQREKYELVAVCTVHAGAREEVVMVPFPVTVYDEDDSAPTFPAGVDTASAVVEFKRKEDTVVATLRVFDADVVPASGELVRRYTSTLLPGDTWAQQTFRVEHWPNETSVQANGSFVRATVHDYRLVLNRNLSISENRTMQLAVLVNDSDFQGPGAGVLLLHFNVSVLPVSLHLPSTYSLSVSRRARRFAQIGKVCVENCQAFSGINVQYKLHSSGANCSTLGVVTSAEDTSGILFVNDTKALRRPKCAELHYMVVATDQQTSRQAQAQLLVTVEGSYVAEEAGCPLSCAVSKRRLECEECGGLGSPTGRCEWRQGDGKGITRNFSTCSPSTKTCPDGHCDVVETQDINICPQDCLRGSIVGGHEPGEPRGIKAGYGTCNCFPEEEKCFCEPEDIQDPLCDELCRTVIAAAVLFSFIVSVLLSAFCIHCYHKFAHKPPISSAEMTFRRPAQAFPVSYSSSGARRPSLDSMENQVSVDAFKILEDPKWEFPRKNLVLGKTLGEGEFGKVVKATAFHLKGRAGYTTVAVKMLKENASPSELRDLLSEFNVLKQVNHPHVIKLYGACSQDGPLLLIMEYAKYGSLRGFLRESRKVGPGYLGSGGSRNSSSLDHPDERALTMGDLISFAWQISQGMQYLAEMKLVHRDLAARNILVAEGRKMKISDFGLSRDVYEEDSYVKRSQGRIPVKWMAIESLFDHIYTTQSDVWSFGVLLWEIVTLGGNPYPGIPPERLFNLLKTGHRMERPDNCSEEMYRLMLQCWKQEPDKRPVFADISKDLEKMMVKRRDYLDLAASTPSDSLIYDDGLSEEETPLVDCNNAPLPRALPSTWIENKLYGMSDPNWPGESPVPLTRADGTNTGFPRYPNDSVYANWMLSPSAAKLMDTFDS
Chain of CLK1 (human) (P49759 whole entry, looked up): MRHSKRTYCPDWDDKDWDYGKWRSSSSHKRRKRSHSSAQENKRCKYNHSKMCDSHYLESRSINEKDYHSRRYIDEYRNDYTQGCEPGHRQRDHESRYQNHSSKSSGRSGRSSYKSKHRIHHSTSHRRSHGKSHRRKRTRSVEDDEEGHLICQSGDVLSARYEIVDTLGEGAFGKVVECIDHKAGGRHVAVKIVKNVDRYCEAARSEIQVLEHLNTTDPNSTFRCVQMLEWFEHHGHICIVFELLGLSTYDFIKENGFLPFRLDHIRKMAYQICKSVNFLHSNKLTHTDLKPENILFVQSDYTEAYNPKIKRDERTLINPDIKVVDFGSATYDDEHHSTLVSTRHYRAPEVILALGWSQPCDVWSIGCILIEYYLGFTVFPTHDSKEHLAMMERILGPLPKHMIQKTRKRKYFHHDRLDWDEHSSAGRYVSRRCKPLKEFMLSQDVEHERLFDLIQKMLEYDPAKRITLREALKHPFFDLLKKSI
Chain of RET (human) (P07949 whole entry, looked up): as the sequence (P07949 whole entry V804M, looked up) above, with M804V counted along it

Compound | kinase still bound, per cent of control (AXL (human)) [%] | kinase still bound, per cent of control (BRSK1 (human)) [%] | kinase still bound, per cent of control (CAMK2D (human)) [%] | kinase still bound, per cent of control (CASK (human)) [%] | kinase still bound, per cent of control (CHUK (human)) [%] | kinase still bound, per cent of control (CLK1 (human)) [%] | kinase still bound, per cent of control (CSNK1A1 (human)) [%] | kinase still bound, per cent of control (CSNK2A1 (human)) [%] | kinase still bound, per cent of control (CSNK2A2 (human)) [%] | kinase still bound, per cent of control (DDR2 (human)) [%] | kinase still bound, per cent of control (DYRK1A (human)) [%] | kinase still bound, per cent of control (EGFR (human)) [%] | kinase still bound, per cent of control (EIF2AK1 (human)) [%] | kinase still bound, per cent of control (EPHA8 (human)) [%] | kinase still bound, per cent of control (FLT4 (human)) [%] | kinase still bound, per cent of control (IRAK1 (human)) [%] | kinase still bound, per cent of control (LIMK2 (human)) [%] | kinase still bound, per cent of control (MAP2K1 (human)) [%] | kinase still bound, per cent of control (MAP2K2 (human)) [%] | kinase still bound, per cent of control (MAP2K3 (human)) [%] | other results
NC(=O)Nc1cc(-c2cccc(F)c2)sc1C(=O)N[C@@H]1CCCNC1 | 0 | 4.9 | 6.7 | 92 | 0 | 1.2 | 0.5 | 0.35 | 5.9 | 0 | 0 | 0.25 | 88 | 0.4 | 0 | 0 | 88 | 0 | 0 | 10 | kinase still bound, per cent of control (MAP3K9 (human)): 0.15%; kinase still bound, per cent of control (MAPK1 (human)): 65%; kinase still bound, per cent of control (MAPK12 (human)): 89%; kinase still bound, per cent of control (MARK1 (human)): 2.6%; kinase still bound, per cent of control [1]: 0.6%; kinase still bound, per cent of control (MST1R (human)): 12%; kinase still bound, per cent of control (PAK1 (human)): 1.2%; kinase still bound, per cent of control (PIM3 (human)): 15%; kinase still bound, per cent of control (RET (human)): 0%; kinase still bound, per cent of control [2]: 0%; kinase still bound, per cent of control (RIOK3 (human)): 0.4%; kinase still bound, per cent of control (ROCK2 (human)): 0.2%; kinase still bound, per cent of control (RPS6KA5 KD2 (human)): 9%; kinase still bound, per cent of control (SGK110 (human)): 0%; kinase still bound, per cent of control (SRC (human)): 0.05%; kinase still bound, per cent of control (SRPK1 (human)): 1.4%; kinase still bound, per cent of control (TAOK2 (human)): 35%; kinase still bound, per cent of control (TNK2 (human)): 0.85%; kinase still bound, per cent of control [3]: 3.2%; kinase still bound, per cent of control (VRK2 (human)): 92%
O=C1NC(=O)/C(=C/c2ccc3nccc(-c4ccncc4)c3c2)S1 | 7.6 | 73 | 10 | 59 | 44 | 0 | 24 | 7.9 | 1.2 | 63 | 0 | 58 | 82 | 90 | 98 | 0.25 | 100 | 1.8 | 4.4 | 35 | kinase still bound, per cent of control (MAP3K9 (human)): 76%; kinase still bound, per cent of control (MAPK1 (human)): 100%; kinase still bound, per cent of control (MAPK12 (human)): 56%; kinase still bound, per cent of control (MARK1 (human)): 74%; kinase still bound, per cent of control [1]: 94%; kinase still bound, per cent of control (MST1R (human)): 100%; kinase still bound, per cent of control (PAK1 (human)): 86%; kinase still bound, per cent of control (PIM3 (human)): 2.4%; kinase still bound, per cent of control (RET (human)): 98%; kinase still bound, per cent of control [2]: 96%; kinase still bound, per cent of control (RIOK3 (human)): 1.4%; kinase still bound, per cent of control (ROCK2 (human)): 53%; kinase still bound, per cent of control (RPS6KA5 KD2 (human)): 4.6%; kinase still bound, per cent of control (SGK110 (human)): 100%; kinase still bound, per cent of control (SRC (human)): 69%; kinase still bound, per cent of control (SRPK1 (human)): 100%; kinase still bound, per cent of control (TAOK2 (human)): 50%; kinase still bound, per cent of control (TNK2 (human)): 100%; kinase still bound, per cent of control [3]: 51%; kinase still bound, per cent of control (VRK2 (human)): 81%
CN(C)C/C=C/C(=O)Nc1ccc(C(=O)Nc2cccc(Nc3nccc(-c4cccnc4)n3)c2)cc1 | 80 | 100 | 67 | 98 | 54 | 4.6 | 27 | 12 | 5.2 | 64 | 28 | 100 | 100 | 91 | 97 | 0.9 | 92 | 92 | 87 | 24 | kinase still bound, per cent of control (MAP3K9 (human)): 78%; kinase still bound, per cent of control (MAPK1 (human)): 77%; kinase still bound, per cent of control (MAPK12 (human)): 76%; kinase still bound, per cent of control (MARK1 (human)): 70%; kinase still bound, per cent of control [1]: 100%; kinase still bound, per cent of control (MST1R (human)): 100%; kinase still bound, per cent of control (PAK1 (human)): 90%; kinase still bound, per cent of control (PIM3 (human)): 78%; kinase still bound, per cent of control (RET (human)): 79%; kinase still bound, per cent of control [2]: 74%; kinase still bound, per cent of control (RIOK3 (human)): 13%; kinase still bound, per cent of control (ROCK2 (human)): 41%; kinase still bound, per cent of control (RPS6KA5 KD2 (human)): 98%; kinase still bound, per cent of control (SGK110 (human)): 100%; kinase still bound, per cent of control (SRC (human)): 100%; kinase still bound, per cent of control (SRPK1 (human)): 26%; kinase still bound, per cent of control (TAOK2 (human)): 70%; kinase still bound, per cent of control (TNK2 (human)): 100%; kinase still bound, per cent of control [3]: 0.2%; kinase still bound, per cent of control (VRK2 (human)): 90%
